Measurements as given in US5441940A, “Process for the preparation of water soluble primycin and its components and pharmaceutical compositions containing them” (Chinoin Gyogyszer es Vegyeszeti Termekek Gyara Rt., priority 1988, dated 1995).

Legend:
[1] = Water solubility; assay type: physicochemical; conditions: for water solubility (product containing bound NH4+ and ammonium hydrocarbonate contaminations): before repeated ion exchange chromatography, m.p. 159-161 °C
[2] = test system: Bacillus subtilis; test: Agar diffusion test, minimum inhibitory concentration (MIC) on Bacillus subtilis; assay type: cell-based, Bacillus subtilis ATCC 6633; conditions: for MIC: Table II, agar diffusion test on Bacillus subtilis; for biological activity (on Bacillus subtilis): preparation examples
Protocol: Thin layer chromatography was performed on a Kieselgel 60 DC Alufolien F254 plate utilizing the upper phase of a 38:2:10:50 v/v mixture of butanol, ethanol, acetic acid and water as solvent and a mixture of vanillin and sulfuric acid at 105° C. as detecting agent. Biological evaluation was performed by agar diffusion test on Bacillus subtilis.
Agar diffusion technique was applied for the biological evaluation of primycin. As test organism Bacillus subtilis ATCC 6633 was applied.
Bacillus subtilis ATCC 6633 was cultivated on a Schaeffer medium (Nutrient Broth No. 2/oxoid) with the following composition:
The solution was heated in a pressurized vessel for 30 minutes at a pressure of 1.5 atmospheres, thereafter the pE was adjusted to 7.0-7.2 with 5-6 drops of 10N sodium hydroxide solution, 90 ml portions of the solution were poured into cultivating dishes, and the portions were supplemented with 10 ml, each, of the following solutions:
a) 236 mg (10^-3 mole) of Ca(NO3)2. 4H2 O dissolved in 100 ml of distilled water, and
b) […] (10^-5 mole) of MnCl2.4H2 O dissolved in 100 ml of distilled water.
The titrating nutrient medium was prepared as follows:
5 g of meat extract (Beef Extract Difco), 0.5 g of peptone (Bacto Peptone Difco), 1 g of Na2 HPO4 and 0.1 g of KH2 PO4 were dissolved in 100 ml of distilled water, the solution was boiled for 2 hours, and then the pH was adjusted to 8. The warm solution was filtered, allowed to cool, the filtrate was diluted with 900 ml of distilled water, and 20 g of agar (Bacto Agar Difco), dissolved in a Koch pot, were added to 1 liter of the solution. The pH of the warm solution was checked. 100 ml portions of the resulting solution were filled into storage flasks and then heat treated for 20 minutes in a pressurized vessel under a pressure of 1.5 atmospheres. […]
Solutions containing 20-50 /ug/ml of active agent were prepared from the substances to be examined [starting water insoluble primycin; water soluble primycin; a mixture of the compounds of formulae (A1) and (A3); a compound of formula (A1); a compound of formula (A3)] in water or in a 1:1:2 v/v mixture of butanol, ethanol and water, and the resulting solutions were diluted with buffered distilled water (0.15 molar phosphate buffer, pH=7.6) to concentrations of 0.05-0.1, 0.5-1.0 and 2.0 /ug/ml. […] Thereafter the diameters of the diffusive extinction zones were measured in mm, the obtained values were plotted on a semi-logarithmic scale against the concentrations of the standard serial dilutions, and the activity values were determined by extrapolation.

[3] = Gelling of aqueous solutions (concentration-, time- and temperature-dependent); assay type: physicochemical; conditions: 5-10 mg/ml aqueous solution of the single component
Protocol: Water soluble primycin has a further very interesting characteristic. It has been observed that its aqueous solution spontaneously gellifies, the gelling time being dependent on the primycin content of the solution. As it appears from the curves of FIG. 1, the complete gelling of a 5-10 mg/ml aqueous primycin solution requires about 1-2 days, that of a 20-40 mg/ml primycin solution requires about 6-12 hours, whereas an aqueous primycin solution comprising more than 50 mg/ml of primycin completely gellifies even within 1-2 hours. The concentration-, time- and temperature-dependent gelling (polymerization) can be attributed presumably to the changes in orientation of the --OH groups in the molecule.
The gelling properties of the individual components of formulae (A1) and (A3) and those of the two-component mixture have also been examined. […] It can be assumed that this delay in gelling is connected with a change in conformation or with the orientation of the hydroxy groups.

Row | SMILES | water solubility (in words) [1] | MIC [2] | biological activity (on Bacillus subtilis) ([2]; listed as component of formula (A1)) | storage of aqueous solution without any observable change [3] | water solubility (product containing bound NH4+ and ammonium hydrocarbonate contaminations) [1] | water solubility (product containing bound NH4+ and ammonium hydrocarbonate contaminations) ([1]; listed as component of formula (A3)) | Water solubility ([1]; water, listed as component of formula (A3)) | biological activity (on Bacillus subtilis) [2]
1 | CCCCC1C(=O)OC(C(C)C(O)CCCNC(=N)N)C(C)C=C(C)CCCCC(O)CC(O)CC(O)CC(O)CC(O)C(OC2OC(CO)C(O)C2O)C=C(C)C(O)CCCC(O)CCCC(O)CCC(C)C1O (stereo not shown) [Compound of formula (A1)] | well soluble in water | 0.03 to 0.06 µg/mL | 0.03-0.06 /ug/ml | can be stored for days (maximum for one week) without any observable change |  |  |  | 
2 | CCCCC1C(=O)OC(C(C)C(O)CCCNC(=N)N)C(C)C=C(C)CCCCC(O)CC(O)CC(O)CC(O)CC(O)C(OC2OC(CO)C(O)C2O)C=C(C)C(O)CCCC(O)CCCC(O)CCC(C)C1O (stereo not shown) [Compound of formula (A3)] |  | 0.5 to 1.0 µg/mL |  | can be stored for days (maximum for one week) without any observable change | about 5 mg/ml | 2000 to 6000 µg/mL | about 50 mg/ml | 0.5-1 /ug/ml
